Measured values published in patent US20170266156A1, “METHOD FOR PREVENTING CANCER BY USING PHTHALIDES” (National Sun Yat-sen University, priority 2016, published 2017).

Target: hemoglobin (Hb) (Homo sapiens, UniProt P68871+P69905)
Experiment: oxygen equilibrium curves / P50 of hemoglobin treated with 2,3-BPG and phthalide compounds
Format: biochemical
Details: for effect of phthalide compound together with 2,3-BPG (lowering the oxygen affinity of hemoglobin): FIG. 1
Text: The oxygen affinity of hemoglobin is commonly characterized by P50 value. The P50 value is the required oxygen partial pressure for hemoglobin to achieve 50% oxygen saturation.

hemoglobin (Hb), sequence (P69905 2-142 limits assumed): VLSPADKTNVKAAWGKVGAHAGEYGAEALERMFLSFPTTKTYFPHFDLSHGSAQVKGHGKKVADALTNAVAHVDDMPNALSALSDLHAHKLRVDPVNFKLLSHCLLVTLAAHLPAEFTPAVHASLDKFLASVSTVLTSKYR
hemoglobin (Hb), sequence (P68871 2-147 limits assumed): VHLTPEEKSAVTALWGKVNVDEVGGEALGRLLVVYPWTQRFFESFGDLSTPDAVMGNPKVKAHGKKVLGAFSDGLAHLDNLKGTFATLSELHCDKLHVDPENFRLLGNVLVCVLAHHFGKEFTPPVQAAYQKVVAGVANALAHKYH

Row | Compound | effect of phthalide compound together with 2,3-BPG (lowering the oxygen affinity of hemoglobin) | oxygen release efficiency of hemoglobin (1.2 mM 2,3-BPG, PO2 of 20 mmHg) [%] | oxygen saturation fraction of hemoglobin (1.2 mM 2,3-BPG, PO2 of 20 mmHg) | oxygen saturation fraction of hemoglobin (Hb) (12 mM 2,3-BPG, fixed oxygen partial pressure of 20 mmHg, 80% where no 2,3-BPG is present) [%] | oxygen release efficiency (12 mM 2,3-BPG, oxygen partial pressure 20 mmHg, 20% without 2,3-BPG) [%] | change of P50 value with 2,3-BPG concentration (FIG. 2, various 2,3-BPG concentrations up to 12.0 mM) | P50 value (approximately 4 mM 2,3-BPG, no phthalide compound) [mmHg]
1 | CCC/C=C1\OC(=O)C2=C1CC[C@@H](O)[C@@H]2O [senkyunolide I] | synergistic effect | – | – | – | – | – | –
2 | CCC/C=C1\OC(=O)C2=C1CCC=C2 [Z-ligustilide] | synergistic effect | – | – | – | – | – | –
3 | O=C(O)C(COP(=O)(O)O)OP(=O)(O)O (centres unmarked) [2,3-BPG, 2,3-bisphosphorglycerate] | – | 40 | approximately 60% | 35 | 65 | higher | 18.8
